# Test system: HBV (encapsidated HBV DNA, HepG2.2.15 cells)
# Assay: HBV replication inhibition assay, BDNA assay in HepG2.2.15 cells
# Format: cell-based
# Conditions: Activity in BDNA-assay
# Method in brief: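 HepG2.2.15 cells (stably integrated HBV, 40,000/well) treated with serially diluted compound in 0.5% DMSO for 6 days, medium and compound refreshed at day 3. DNase-treated supernatant lysed with proteinase K; encapsidated HBV DNA quantified by bDNA, percent inhibition versus DMSO controls, EC50 by nonlinear fit.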
row,Compound,EC50 [µM]
1,"C=CC(O)C1CN(C)C(=O)c2c3c(nn2C1)CC(C)N(C(=O)Nc1ccc(F)c(Br)c1)C3 [Compound 124_D2, (3R,8S*)—N-(3-bromo-4-fluorophenyl)-8-((S*)-1-hydroxyallyl)-3,10-dimethyl-11-oxo-1,3,4,7,8,9,10,11-octahydro-2H-pyrido[4′,3′:3,4]pyrazolo[1,5-a][1,4]diazepine-2-carboxamide]",0.001 to 0.1
2,"CCC(O)C1CN(C)C(=O)c2c3c(nn2C1)CC(C)N(C(=O)Nc1ccc(F)c(C#N)c1)C3 [Compound 108_D1, (3R,8S*)—N-(3-cyano-4-fluorophenyl)-8-((R)-1-hydroxypropyl)-3,10-dimethyl-11-oxo-1,3,4,7,8,9,10,11-octahydro-2H-pyrido[4′,3′:3,4]pyrazolo[1,5-a][1,4]diazepine-2-carboxamide]",0.001 to 0.1
3,"CN1CC(CNCC(F)F)Cn2nc3c(c2C1=O)CN(C(=O)Nc1cc(Cl)c(F)cc1F)CC3 (single isomer, unassigned) [Compound 126_E2, (S*)—N-(5-chloro-2,4-difluorophenyl)-8-(((2,2-difluoroethyl)amino)methyl)-10-methyl-11-oxo-1,3,4,7,8,9,10,11-octahydro-2H-pyrido[4′,3′:3,4]pyrazolo[1,5-a][1,4]diazepine-2-carboxamide]",0.1 to 0.5
4,"CN1CC(CNCC(F)F)Cn2nc3c(c2C1=O)CN(C(=O)Nc1ccc(F)c(Cl)c1F)CC3 (single isomer, unassigned) [Compound 128_E1, (R*)—N-(3-chloro-2,4-difluorophenyl)-8-(((2,2-difluoroethyl)amino)methyl)-10-methyl-11-oxo-1,3,4,7,8,9,10,11-octahydro-2H-pyrido[4′,3′:3,4]pyrazolo[1,5-a][1,4]diazepine-2-carboxamide]",0.1 to 0.5
5,"CCC(O)C1CN(C)C(=O)c2c3c(nn2C1)CCN(C(=O)Nc1ccc(F)c(C#N)c1)C3 (single isomer, unassigned) [Compound 097_E2, (S*)—N-(3-cyano-4-fluorophenyl)-8-((R*)-1-hydroxypropyl)-10-methyl-11-oxo-1,3,4,7,8,9,10,11-octahydro-2H-pyrido[4′,3′: 3,4]pyrazolo[1,5-a][1,4]diazepine-2-carboxamide]",0.1 to 0.5
6,"CN1CC(CNCC(F)F)Cn2nc3c(c2C1=O)CN(C(=O)Nc1ccc(F)c(Cl)c1F)CC3 (single isomer, unassigned) [Compound 128_E2, (S*)—N-(3-chloro-2,4-difluorophenyl)-8-(((2,2-difluoroethyl)amino)methyl)-10-methyl-11-oxo-1,3,4,7,8,9,10,11-octahydro-2H-pyrido[4′,3′:3,4]pyrazolo[1,5-a][1,4]diazepine-2-carboxamide]",0.001 to 0.1

# Same assay, conditions: Hepatitis B virus, HepG2.2.15, Activity in BDNA-assay
row,Compound,EC50 [µM]
1,"C=CC(O)C1CN(C)C(=O)c2c3c(nn2C1)CC(C)N(C(=O)Nc1ccc(F)c(Br)c1)C3 [Compound 124_D1, (3R,8S*)—N-(3-bromo-4-fluorophenyl)-8-((R*)-1-hydroxyallyl)-3,10-dimethyl-11-oxo-1,3,4,7,8,9,10,11-octahydro-2H-pyrido[4′,3′:3,4]pyrazolo[1,5-a][1,4]diazepine-2-carboxamide]",0.001 to 0.1
2,"CN1CC(CN)Cn2nc3c(c2C1=O)CN(C(=O)Nc1ccc(F)c(Cl)c1)CC3 (centres unmarked) [Compound 070, 8-(aminomethyl)-N-(3-chloro-4-fluorophenyl)-10-methyl-11-oxo-1,3,4,7,8,9,10,11-octahydro-2H-pyrido[4′,3′:3,4]pyrazolo[1,5-a][1,4]diazepine-2-carboxamide]",0.001 to 0.1
3,"CN1CC([S+](C)[O-])Cn2nc3c(c2C1=O)CN(C(=O)Nc1ccc(F)c(Cl)c1)CC3 (single isomer, unassigned) [Compound 026A, N-(3-chloro-4-fluoro-phenyl)-10-methyl-8-methylsulfinyl-11-oxo-1,3,4,7,8,9-hexahydropyrido[2,3]pyrazolo[2,4-b][1,4]diazepine-2-carboxamide]",> 1
4,"CN1CC(CNCC(F)F)Cn2nc3c(c2C1=O)CN(C(=O)Nc1ccc(F)c(C#N)c1)CC3 (centres unmarked) [Compound 118, N-(3-cyano-4-fluorophenyl)-8-(((2,2-difluoroethyl)amino)methyl)-10-methyl-11-oxo-1,3,4,7,8,9,10,11-octahydro-2H-pyrido[4′,3′:3,4]pyrazolo[1,5-a][1,4]diazepine-2-carboxamide]",0.001 to 0.1
5,"CN1CC(CNCC(F)(F)F)Cn2nc3c(c2C1=O)CN(C(=O)Nc1ccc(F)c(C(F)(F)F)c1)CC3 (centres unmarked) [Compound 121, N-(4-fluoro-3-(trifluoromethyl)phenyl)-10-methyl-11-oxo-8-(((2,2,2-trifluoroethyl)amino)methyl)-1,3,4,7,8,9,10,11-octahydro-2H-pyrido[4′,3′:3,4]pyrazolo[1,5-a][1,4]diazepine-2-carboxamide]",0.001 to 0.1
6,"CN1CC(CN2CCC(F)(F)C2)Cn2nc3c(c2C1=O)CN(C(=O)Nc1ccc(F)c(Cl)c1)CC3 (centres unmarked) [Compound 066, N-(3-chloro-4-fluorophenyl)-8-((3,3-difluoropyrrolidin-1-yl)methyl)-10-methyl-11-oxo-1,3,4,7,8,9,10,11-octahydro-2H-pyrido[4′,3′:3,4]pyrazolo[1,5-a][1,4]diazepine-2-carboxamide]",0.001 to 0.1
7,"CN1CC(S(C)(=O)=O)Cn2nc3c(c2C1=O)CN(C(=O)Nc1ccc(F)c(Cl)c1)CC3 (centres unmarked) [Compound 027, N-(3-chloro-4-fluoro-phenyl)-10-methyl-8-methylsulfonyl-11-oxo-1,3,4,7,8,9-hexahydropyrido[2,3]pyrazolo[2,4-b][1,4]diazepine-2-carboxamide]",0.001 to 0.1
8,"C[C@@H]1Cc2nn3c(c2CN1C(=O)Nc1ccc(F)c(C#N)c1)C(=O)N(C)CC(CO)C3 (single isomer, unassigned) [Compound 087_D1, (3R,8S*)—N-(3-cyano-4-fluorophenyl)-8-(hydroxymethyl)-3,10-dimethyl-11-oxo-1,3,4,7,8,9,10,11-octahydro-2H-pyrido[4′,3′:3,4]pyrazolo[1,5-a][1,4]diazepine-2-carboxamide]",0.001 to 0.1
9,"CN1CC(C(F)F)Cn2nc3c(c2C1=O)CN(C(=O)Nc1ccc(F)c(Cl)c1)CC3 (centres unmarked) [Compound 037, N-(3-chloro-4-fluorophenyl)-8-(difluoromethyl)-10-methyl-11-oxo-1,3,4,7,8,9,10,11-octahydro-2H-pyrido[4′,3′:3,4]pyrazolo[1,5-a][1,4]diazepine-2-carboxamide]",0.001 to 0.1
10,"CCC(O)C1CN(C)C(=O)c2c3c(nn2C1)CCN(C(=O)Nc1cc(F)c(F)c(F)c1)C3 (single isomer, unassigned) [Compound 104_E1, (R*)-8-((S*)-1-hydroxypropyl)-10-methyl-11-oxo-N-(3,4,5-trifluorophenyl)-1,3,4,7,8,9,10,11-octahydro-2H-pyrido[4′,3′:3,4]pyrazolo[1,5-a][1,4] diazepine-2-carboxamide]",0.001 to 0.1
11,C[C@@H]1Cc2nn3c(c2CN1C(=O)Nc1ccc(F)c(Cl)c1)C(=O)N(CC(C)(C)O)CCC3 [Compound 048],0.1 to 0.5
12,"CCC(O)C1CN(C)C(=O)c2c3c(nn2C1)CCN(C(=O)Nc1ccc(F)c(C(F)(F)F)c1F)C3 (single isomer, unassigned) [Compound 103_E1, (R*)—N-(2,4-difluoro-3-(trifluoromethyl)phenyl)-8-((S*)-1-hydroxypropyl)-10-methyl-11-oxo-1,3,4,7,8,9,10,11-octahydro-2H-pyrido[4′,3′:3,4]pyrazolo[1,5-a][1,4] diazepine-2-carboxamide]",0.001 to 0.1
13,CN(C)CC1CN(C)C(=O)c2c3c(nn2C1)CCN(C(=O)Nc1ccc(F)c(Cl)c1)C3 (centres unmarked) [Compound 065],0.1 to 0.5
14,"CN1C(=O)c2c3c(nn2CCC1(C)C(=O)O)CCN(C(=O)Nc1ccc(F)c(Cl)c1)C3 (centres unmarked) [Compound 062, 2-((3-chloro-4-fluorophenyl)carbamoyl)-9,10-dimethyl-11-oxo-1,3,4,7,8,9,10,11-octahydro-2H-pyrido[4′,3′:3,4]pyrazolo[1,5-a][1,4]diazepine-9-carboxylic acid]",> 1
15,"CC(=O)NCC1CN(C)C(=O)c2c3c(nn2C1)CCN(C(=O)Nc1ccc(F)c(Cl)c1)C3 (centres unmarked) [Compound 117, 8-(acetamidomethyl)-N-(3-chloro-4-fluorophenyl)-10-methyl-11-oxo-1,3,4,7,8,9,10,11-octahydro-2H-pyrido[4′,3′:3,4]pyrazolo[1,5-a][1,4]diazepine-2-carboxamide]",0.001 to 0.1
16,"C[C@@H]1Cc2nn3c(c2CN1C(=O)Nc1cc(Br)c(F)cc1F)C(=O)N(C)CC(CO)C3 (single isomer, unassigned) [Compound 085_D1, (3R,8 S*)—N-(5-bromo-2,4-difluorophenyl)-8-(hydroxymethyl)-3,10-dimethyl-11-oxo-1,3,4,7,8,9,10,11-octahydro-2H-pyrido[4′,3′:3,4]pyrazolo[1,5-a][1,4]diazepine-2-carboxamide]",0.001 to 0.1
17,"C=C1CN(C)C(=O)c2c3c(nn2C1)CCN(C(=O)Nc1ccc(F)c(Cl)c1)C3 [Compound 001, N-(3-chloro-4-fluorophenyl)-10-methyl-8-methylene-11-oxo-1,3,4,7,8,9,10,11-octahydro-2H-pyrido[4′,3′:3,4]pyrazolo[1,5-a][1,4]diazepine-2-carboxamide]",0.001 to 0.1
18,"CN1C(=O)c2c3c(nn2CCC1C(=O)O)CCN(C(=O)Nc1ccc(F)c(Cl)c1)C3 (centres unmarked) [Compound 058, 2-((3-chloro-4-fluorophenyl)carbamoyl)-10-methyl-11-oxo-1,3,4,7,8,9,10,11-octahydro-2H-pyrido[4′,3′:3,4]pyrazolo[1,5-a][1,4]diazepine-9-carboxylic acid]",> 1
19,"CCOC1CN(C)C(=O)c2c3c(nn2C1)CCN(C(=O)Nc1ccc(F)c(Cl)c1)C3 (centres unmarked) [Compound 017, N-(3-chloro-4-fluorophenyl)-8-ethoxy-10-methyl-11-oxo-1,3,4,7,8,9,10,11-octahydro-2H-pyrido[4′,3′:3,4]pyrazolo[1,5-a][1,4]diazepine-2-carboxamide]",0.001 to 0.1
20,"CCC(O)C1CN(C)C(=O)c2c3c(nn2C1)CCN(C(=O)Nc1ccc(F)c(Br)c1)C3 [Compound 102_E1, (R*)—N-(3-bromo-4-fluorophenyl)-8-((S)-1-hydroxypropyl)-10-methyl-11-oxo-1,3,4,7,8,9,10,11-octahydro-2H-pyrido[4′,3′:3,4]pyrazolo[1,5-a][1,4]diazepine-2-carboxamide]",0.001 to 0.1

# From patent US10975077B2 (Novira Therapeutics, Inc., priority 2016, dated 2021)
